{"source": "patent US5744161A", "about": "“Use of piperine as a bioavailability enhancer” (priority 1995, dated 1998)", "key": {"preweaned mice": {"test_system": "preweaned mice", "details": "cited from earlier work; for carcinogenic potency compared with methylcholantrene / tumor development: injected, preweaned mice; for effect on carcinogenic activity of safarole, tannic acid or methylcholantrene: fed to injected mice"}, "[1]": {"details": "20 mg piperine daily for seven days, then 300 mg phenytoin; cited from earlier work"}, "[2]": {"details": "with piperine, cited from earlier work"}, "[3]": {"test_system": "mice treated with potent hepatotoxins and carbon tetrachloride", "details": "in vivo and in vitro experiments; cited from earlier work"}, "[4]": {"test_system": "mice treated with potent hepatotoxins tetra-hydroperoxide and carbon tetrachloride", "details": "cited from earlier work"}, "[5]": {"test_system": "benzo(a)pyrene activation", "details": "cited from earlier work"}, "[6]": {"details": "co-administered drugs; cited from earlier work"}, "rats [7]": {"test_system": "rats", "details": "100 mg and 800 mg/kg intragastric; 10 mg/kg and 100 mg/kg intra-peritoneal; cited from earlier work"}, "[8]": {"test_system": "rats injected with carageenin", "details": "cited from earlier work"}, "[9]": {"assay": "Blood levels of vitamin A (retinol) before and after 14 days supplementation", "format": "in vivo, human", "details": "5 mg piperine with beta-carotene, in words", "procedure": "Piperine known under the trademark Bioperine® consisting of 98% piperine has been evaluated in a nutrient bioavailability experiment.\nA dose of 5 mg of piperine, and up to 15 mg, would most likely not interfere with the metabolism of a majority of drugs as previously discussed. […] Retinol, or vitamin A, is a product of metabolic conversion of beta-carotene, and its blood levels would likely be affected by enzymatic inhibition/stimulation with piperine.\nValues of Vitamin A (retinol) before treatment and after\n14 days supplementation with Bioperine ®"}, "rats [10]": {"test_system": "rats", "details": "cited from earlier work"}, "[11]": {"assay": "Margin of bioenhancing dose of piperine versus LD50 in rodents", "set-up": "species or system mice and rats", "details": "in vivo; maximum approx. 15 mg/person/day, no more than 20 mg/day; read-out: bioenhancing dose less than LD50 dose", "procedure": "Black pepper contains approximately 5-9% piperine and is listed by the FDA as an herb which is generally recognized as safe (GRAS) for its intended use as spice, seasoning, or flavoring.\nThe dose of piperine considered as bioenhancing absorption of nutrients is considered 0.0004-0.15 mg of piperine/kg body weight."}, "Rat": {"test_system": "Rat", "details": "cited from earlier work"}, "cytochrome P-450": {"test_system": "cytochrome P-450", "details": "cited from earlier work"}, "Mice": {"test_system": "Mice", "details": "cited from earlier work"}, "laboratory animals": {"test_system": "laboratory animals", "details": "broad range of doses; cited from earlier work"}, "V-79 lung fibroblasts": {"test_system": "V-79 lung fibroblasts", "details": "in vitro; cited from earlier work"}, "[12]": {"details": "cited from earlier work"}, "[13]": {"details": "in vivo and in vitro experiments"}, "[14]": {"details": "5 to 20 times the average daily human intake"}, "[15]": {"details": "dose that significantly inhibited pregnancy"}}, "note": "Several values for one entry are separate records, joined by “and”; a condition that tells them apart may be missing. Equal entries are not always repeated. Entries after “also recorded” stand apart in the source; their conditions may differ. Where two headings read alike, the source gives them in different places.", "data": [{"smiles": "O=C(OC[C@H]1O[C@@H](OC(=O)c2cc(O)c(O)c(OC(=O)c3cc(O)c(O)c(O)c3)c2)[C@H](OC(=O)c2cc(O)c(O)c(OC(=O)c3cc(O)c(O)c(O)c3)c2)[C@@H](OC(=O)c2cc(O)c(O)c(OC(=O)c3cc(O)c(O)c(O)c3)c2)[C@@H]1OC(=O)c1cc(O)c(O)c(OC(=O)c2cc(O)c(O)c(O)c2)c1)c1cc(O)c(O)c(OC(=O)c2cc(O)c(O)c(O)c2)c1", "note": "[tannic acid]", "values": [{"measurement": "carcinogenic potency compared with methylcholantrene", "setting": "preweaned mice", "result": "weak carcinogens"}, {"measurement": "tumor development", "setting": "preweaned mice", "result": "developed tumors"}]}, {"smiles": "C=C(C)[C@H]1CC=C(C)CC1", "note": "[d-limonene]", "values": [{"measurement": "effect on carcinogenic activity of safarole, tannic acid or methylcholantrene", "setting": "preweaned mice", "result": "reduced their carcinogenic activity"}]}, {"smiles": "O=C1NC(=O)C(c2ccccc2)(c2ccccc2)N1", "note": "[phenytoin]", "values": [{"measurement": "blood concentration of phenytoin", "setting": "[1]", "result": "increased blood levels; also recorded: rose more rapidly"}, {"measurement": "elimination of phenytoin", "setting": "[1]", "result": "dramatically prolonged the elimination time; also recorded: significantly slower elimination"}, {"measurement": "maximum concentration of phenytoin", "setting": "[1]", "result": "significantly higher concentrations"}, {"measurement": "time to maximum concentration of phenytoin", "setting": "[1]", "result": "shorter time"}]}, {"smiles": "CC(C)NCC(O)COc1cccc2ccccc12", "note": "(stereo not shown) [propranolol]", "values": [{"measurement": "elimination rate of propranolol", "setting": "[2]; 3 mg dose", "result": "did not affect the elimination rate; also recorded: without slowing down the drug elimination rate"}, {"measurement": "maximum blood concentration increase of propranolol", "setting": "[2]; 3 mg dose", "result": "two fold; also recorded: doubling its blood levels"}, {"measurement": "plasma / blood levels of propranolol", "setting": "[2]", "result": "significant increase in plasma levels; also recorded: significant increase in blood levels"}]}, {"smiles": "O=C(/C=C/C=C/c1ccc2c(c1)OCO2)N1CCCCC1", "note": "[piperine]", "values": [{"measurement": "enzymatic leakage of glutamate pyruvate transaminase and alkaline phosphatase", "setting": "[3]", "result": "reduced enzymatic leakage"}, {"measurement": "hepatoprotective action", "setting": "[4]; [13]", "result": "hepatoprotective action"}, {"measurement": "lipid peroxidation", "setting": "[4]; [13]", "result": "decrease in lipid peroxidation"}, {"measurement": "reduced glutathione and total thiols in the liver", "setting": "[4]; mouse, in vivo", "result": "prevented depletion of reduced glutathione and total thiols"}, {"measurement": "effect on carcinogenic activity of safarole, tannic acid or methylcholantrene", "setting": "preweaned mice", "result": "did not modify their carcinogenic activity"}, {"measurement": "effect on benzo(a)pyrene cytotoxicity", "setting": "[5]; by lowering benzo(a)pyrene-oxide production", "result": "decreasing benzo(a)pyrene cytotoxicity"}, {"measurement": "effect on benzo(a)pyrene activation (benzo(a)pyrene-oxide production)", "setting": "[5]", "result": "inhibit benzo(a)pyrene activation"}, {"measurement": "bioavailability of a number of drugs", "setting": "[6]", "result": "increase the bioavailability, blood levels and efficacy of a number of drugs"}, {"measurement": "serum sorbitol dehydrogenase (SDH), ALT, AST and isocitrate dehydrogenase (ICD)", "setting": "rats [7]", "result": "None of the treatment regiments altered significantly"}, {"measurement": "acid phosphatase levels", "setting": "[8]", "result": "leveling off increased levels of acid phosphatase"}, {"measurement": "lipid peroxide formation", "setting": "[8]", "result": "inhibiting lipid peroxide formation"}, {"measurement": "blood levels of retinol / conversion of beta-carotene to vitamin A", "setting": "[9]", "result": "remained unchanged throughout the experiment; also recorded: does not elevate the conversion of beta-carotene to vitamin A"}, {"measurement": "clinical symptoms", "setting": "rats [10]; [14]", "result": "no clinical symptoms"}, {"measurement": "food intake, growth pattern, organ weights", "setting": "rats [10]; [14]", "result": "did not affect"}, {"measurement": "blood chemistry (RBC, WBC, differential count, hemoglobin, serum proteins, albumins, globulins, glucose, cholesterol, aminotransferases, phosphatases)", "setting": "rats [10]; treated vs untreated animals", "result": "no alterations"}, {"measurement": "selectivity ratio", "setting": "[11]", "result": "≤ 40000"}, {"measurement": "LD50", "setting": "Rat; Rat weanling", "result": 585.0, "unit": "mg/kg body weight"}, {"measurement": "LD50", "setting": "Rat; Rat", "result": "514.0 mg/kg body weight and 800.0 mg/kg body weight"}, {"measurement": "decrease of cytochrome P-450 content of hepatic microsomes", "setting": "cytochrome P-450; treatment of rats", "result": "approximately 20%"}, {"measurement": "anti-fertility activity", "setting": "Mice; 5 mg/kg body weight/day", "result": "no anti-fertility activity"}, {"measurement": "inhibition of pregnancy", "setting": "Mice; 12.5 mg/kg body weight, twice a day, intraperitoneal or oral", "result": "inhibited significantly pregnancy in mice"}, {"measurement": "effectiveness at pre- and post-implantation periods", "setting": "Mice; 12.5 mg/kg body weight, twice a day", "result": "effective at both pre- and post-implantation periods"}, {"measurement": "clinically noticeable toxicity", "setting": "Mice; [15]", "result": "did not produce clinically noticeable toxicity"}, {"measurement": "effect on estrogen cycle", "setting": "Mice; [15]", "result": "did not interfere with the estrogen cycle"}, {"measurement": "uterotropic effect", "setting": "Mice; [15]", "result": "did not show uterotropic effect"}, {"measurement": "general growth pattern, body to organ weight ratio, clinical symptomatology and blood chemistry", "setting": "laboratory animals", "result": "does not cause any abnormality"}, {"measurement": "effect on benzo(a)pyrene cytotoxicity", "setting": "V-79 lung fibroblasts", "result": "significantly enhanced benzo(a)pyrene cytotoxicity"}]}, {"smiles": "Cn1c(=O)c2[nH]cnc2n(C)c1=O", "note": "[theophylline]", "values": [{"measurement": "maximum concentration of theophylline, increase", "setting": "[12]; 20 mg piperine daily for seven days, then 150 mg theophylline", "result": 1.5, "unit": "times higher"}, {"measurement": "blood levels of theophylline", "setting": "[12]; 20 mg piperine for seven days prior", "result": "increased blood levels"}]}, {"smiles": "C=CCc1ccc2c(c1)OCO2", "note": "[safarole]", "values": [{"measurement": "carcinogenic potency compared with methylcholantrene", "setting": "preweaned mice", "result": "weak carcinogens"}, {"measurement": "tumor development", "setting": "preweaned mice", "result": "developed tumors"}, {"measurement": "increase of cytochrome P-450 content of hepatic microsomes", "setting": "cytochrome P-450; pretreatment of rats", "result": "about 50%"}]}, {"smiles": "Cc1ccc2cc3c(ccc4ccccc43)c3c2c1CC3", "note": "[methylcholantrene]", "values": [{"measurement": "tumor development", "setting": "preweaned mice", "result": "developed tumors"}]}]}
